Measured values from patent US20240041796A1, “ANTI-INFLAMMATORY COMPOSITION COMPRISING N-BENZYL-N-METHYLDECAN-1-AMINE OR A DERIVATIVE THEREOF AS AN ACTIVE INGREDIENT” (PUSAN NATIONAL UNIVERSITY INDUSTRY-UNIVERSITY COOPERATION …, priority 2022, published 2024).

Assays:
Balb/C mice = assay: DNCB-induced atopic dermatitis model, cosmetic cream applied to the skin; type: in vivo, mouse; details: for DNCB-induced atopic dermatitis (level of dermatitis): cosmetic cream (0.3% active; Lidomax ointment 0.15%) applied to the back for 2 weeks, FIG. 9A, 9C
Experimental: Wed added 0.3 g of olive wax to 2 mL of soybean oil (Sigma-Aldrich) in a glass tube (15 ml), and put the tube in a 75° C. water-bath, and performed a double boiling thereon to melt the olive wax for 30 minutes while vortexing the tube at 10 minute interval. Under the same conditions, 7.7 ml of purified water was put into a 75° C. water-bath and heated the same for 30 minutes. Next, 7.5 ml of purified water was poured into the tube containing the olive wax and the mixture was stirred well via vortexing. Then, […] (0.3%) of each of BMDA and derivatives thereof (FMJ-G0, FMJ-G4, FMJ-G1, FMJ-G2, FMJ-G3) as synthesized in Examples 1 and 3 were added to the mixture, followed by stirring. The reaction product was cooled in ice and prepared in the form of a cosmetic cream.
In order to induce atopic dermatitis using 5-week-old Balb/C mice, hair on the back of the mouse was removed therefrom, and after one day, a 0.5% solution in which DNCB (2,4-dinitrochlorobenzne) is mixed with acetone and olive oil (3:1) was prepared, and then was applied thereon for 3 consecutive days by 150 μL per each day. Thereafter, the solution of the same concentration was applied to the back area from which the hair was removed twice a week and this process continued for 2 weeks. Further, to alleviate atopic dermatitis induced in this way, the cosmetic cream containing each of BMDA (FMJ-G0) and the derivatives thereof (FMJ-G4, FMJ-G1, FMJ-G2, FMJ-G3) of the present disclosure as prepared above was applied to the back of rats with the induced atopic dermatitis for 2 weeks, and then, changes in skin inflammation were examined.
The experimental results of FIG. 10A and FIG. 10B was obtained as follows as in FIG. 9. The skin tissue was removed from the back of the mouse in the group, and was placed fixedly in 10% formaldehyde for 48 hours, and paraffin pieces were made, and the pieces were thinly sliced so as to have a thickness of 4 μm and was subjected to hematoxylin-esoin staining. Then, whether the damaged skin tissue was recovered by each of BMDA (FMJ-G0) and DMMA (FMJ-G4) was examined using an optical microscope equipped with a Leica application (Leica Microsystems, Switzerland).
To this end, the atopic dermatitis is induced in FIG. 9, and on 2 weeks since the treatment with BMDA (FMJ-G0) and DMMA (FMJ-G4), blood (500 ul) is collected from the hepatic veins of the rats of the above groups, and left at room temperature for 30 minutes. Then, serum was separated and prepared via centrifugation, and then, the IgE concentration related to the allergic reaction was measured through ELISA using the serum thus prepared.
Anti-mouse IgE (Pharmingen, CA, USA) was diluted with PBS (pH 7.4) on a 96-well plate, 100 μL thereof was coated on each 96-well plate, and then left at 4° C. for 12 hours. The plate was washed with PBS containing 0.05% tween. Blocking was performed thereon for 1 hour with PBS containing 1% BSA, 5% sucrose, and 0.05% NaN3. Washing was performed thereon several times using washing buffer. Recombinant IgE and serum were added thereto, and reaction occurred at 37° C. for 2 hours, and each well was washed again, and biotinylated IgE (Pharmingen, CA, USA) was added thereto. Reaction occurred for 2 hours. After washing the well, avidin peroxidase was added thereto and reaction occurred at 37° C. for 30 minutes. Then, the well was washed and then, ABTS solution as a substrate was added thereto. Absorbance was measured at 405 nm using ELISA reader (Epoch2, Biotek, VT, USA).
FIG. 11 show data obtained as follows. The atopic dermatitis was induced as described in FIG. 9, and on 2 weeks since the treatment with BMDA or DMMA (FMJ-G0/G4), a portion of the skin tissue of the rats in the groups were put in Trisol solution and the tissue was crushed in a sonicator. […]

THP-1 cell line = assay: LPS-induced signaling pathway in THP-1 cells pretreated with FMJ-G0 derivatives; type: cell-based, human; details: pretreated 4 μM 1 hour, LPS 1 μg/mL 4 hours; FIG. 8B
Experimental: Thereafter, the THP-1 cell line was pretreated with the synthesized FMJ-G0 derivatives FMJ-G1, FMJ-G2, and FMJ-G3 at a concentration of 4 μM for 1 hour. Lipopolysaccharide (1 μg/mL) was added to a culture medium in which the THP-1 cell line was cultured for 4 hours. The same cell line was collected, and a signaling pathway involved in inflammatory cytokine synthesis was identified, and the result is shown in FIG. 8B.

[1] = cosmetic cream (Lidomax ointment 0.15%) applied for 2 weeks, FIG. 9B, 9D

SMILES | DNCB-induced atopic dermatitis (level of dermatitis) (Balb/C mice) | size of the (inguinal) lymph node (Balb/C mice; [1]) | size of the spleen (Balb/C mice; [1]) | phosphorylation of JNK resulting from LPS (THP-1 cell line) | phosphorylation of MK2 resulting from LPS (THP-1 cell line) | phosphorylation of p38 MAP kinase resulting from LPS (THP-1 cell line)
CCCCCCCCCCCCN(C)Cc1ccccc1 [FMJ-G2, benzyl-dodecyl-methyl-amine] | did not prevent | increased | increased | inhibited | inhibited | inhibited
CCCCCCCCCCN(CC)Cc1ccccc1 [FMJ-G1, Benzyl-decyl-ethyl-amine] | significantly alleviates | – | – | inhibited | inhibited | inhibited
